Laboratory results reported in patent US9862748B2, “Peptide compounds and methods of production and use thereof” (priority 2012, dated 2018).
Like-named read-outs stand apart in the source and are kept apart here. Square brackets hold non-standard residues; d marks the D form. Peptide text beside a SMILES is read from it. AEEA = NCCOCCOCC(=O)O

Assays:
[1] = system: Pseudomonas aeruginosa ATCC® 27853™; type: cell-based; design: Effects of Peptide Compounds on Pseudomonas aeruginosa ATCC ® 27853 ™: unit not given here; conditions: Table 6
Experimental: (§1) In vitro bactericidal activity: The three peptide compounds BCC01-5RMP (SEQ ID NO: 21), BCC02-5RMP (SEQ ID NO: 22), and BCC03-5RMP (SEQ ID NO: 23) were assayed for in vitro bactericidal activity against Pseudomonas aeruginosa, Escherichia coli, Salmonella typhimurium, and Acinetobacter baumannii. The starting inoculum for all experiments was 1×10^6 colony forming units (CFU)/ml. The CFU remaining at the end of 60 to 180 minute incubation was determined, and the data plotted as a log reduction in CFU/ml.
(§2) For FIGS. 10-13, in vitro bactericidal assays were performed using a starting inoculum of 1×10^6 CFU/ml of the bacterial suspension. The CFU remaining at the end of the 60-180 minute incubation was determined, and the data was plotted as log reduction in CFU/ml.
(§3) In particular, each of the test peptides (CAP37 peptides 120-146WR, 120-146WH, and 95-122 (SEQ ID NOs: 30, 31, and 26, respectively)) was used at 25, 12.5, 6.25, and 3.12 μM. Gentamicin was used at 4 μg/ml. 1×10^6/ml Acinetobacter baumannii ATCC® BAA-747™ or Pseudomonas aeruginosa ATCC® 27853™ (American Type Culture Collection, Manassas, Va.) were incubated with the peptides, negative buffer control (tryptone saline), and positive control gentamicin at pH 5.5 or 7.2. A 60 minute incubation was used for Acinetobacter baumannii ATCC® BAA-747™, while a 180 minute incubation was used for Pseudomonas aeruginosa ATCC® 27853™. 50 μl aliquots were plated out on agar plates and incubated overnight. Colony forming units were counted after overnight incubation and CFU/ml calculated.
For FIG. 14, 1×10^6/ml Pseudomonas aeruginosa ATCC® 27853™ were incubated with each of the test peptides (CAP37 peptides 120-146WR, 120-146WH, 120-146QR, 120-146QH, 120-146QR-5RMP, and 120-146QH-5RMP (SEQ ID NOs: 30, 31, 28, 29, 32, and 33, respectively)) at 150, 75, and 37.5 μg/ml, or negative buffer control (tryptone saline), for 180 minutes at pH 5.5. 50 μl aliquots were plated out on agar plates and incubated overnight. Colony forming units were counted after overnight incubation and CFU/ml calculated.

[2] = system: E. coli ATCC® strain 25922™; type: cell-based, Escherichia coli; design: unit not given here; conditions: Peptide Conc 1.56 μg/ml; Table 6
Experimental: as §1

[3] = system: Acinetobacter baumannii ATCC® BAA-747™; type: cell-based; conditions: starting inoculum 1×10^6 CFU/ml; 60 to 180 minute incubation
Experimental: as §1, §2, §3

Salmonella typhimurium = test: In vitro bactericidal assay; type: cell-based
Experimental: as §1

Pseudomonas LPS = test: LPS binding, Limulus Amebocyte Lysate (LAL) assay
Experimental: (§4) The well-characterized response of RAW264.7 macrophage cells was used to produce tumor necrosis-factor-alpha (TNF-α) in response to LPS to determine whether the peptides could dampen the release of this cytokine. […] Importantly, pre-treatment (3 hours prior to LPS addition) as well as post-treatment of the RAW264.7 cells (3 hours post LPS addition) with peptide dampened the cytokine release. […] The finding that the novel peptides bind and neutralize the effect of Pseudomonas LPS is of critical importance since this ensures that the novel therapeutic peptide compounds described herein will not only kill the bacteria, but will also neutralize the LPS endotoxin released by the bacteria which plays such an important role in the rapid progression of sepsis.
(§5) BCC01-5RMP (SEQ ID NO: 21), BCC02-5RMP (SEQ ID NO: 22), and BCC03-5RMP (SEQ ID NO: 23) were tested for their ability to bind lipopolysaccharide (LPS) using the limulus amebocyte lysate method (LAL). […] There was no statistical difference in their ability to bind LPS using the LAL technique. The ability of the peptides to neutralize LPS was assessed by determining their ability to attenuate the release of tumor necrosis factor-alpha (TNF-α) from LPS-stimulated RAW264.7 cells (a mouse macrophage cell line). […] No significant differences were observed between the three peptides to neutralize LPS as measured by cytokine release.

RAW264.7 cells = test: LPS neutralization: TNF-α release from LPS-stimulated RAW264.7 cells; type: cell-based, mouse
Experimental: as §4, §5

[4] = system: Pseudomonas clinical isolate B64; test: BIOSCREEN C growth assay / MIC, antibiotic in combination with peptide; type: cell-based, P. aeruginosa
Experimental: The peptide and antibiotics were set up in the wells of the microtiter plate at starting ratios of MIC equivalents of antibiotic:peptide at 3:1, 1:1, and 1:3. They were serially diluted to concentrations well below suboptimal/sublethal levels of the antibiotic and peptide. The organism was added (1×10^5 CFU/well), the BIOSCREEN C™ assay (Growth Systems USA, Piscataway, N.J.) was performed, and data was collected over 24 hours.

| Structure (SMILES) | Effects of Peptide Compounds on Pseudomonas aeruginosa ATCC ® 27853 ™ ([1]; Peptide Conc 25 μg/ml) | Effects of Peptide Compounds on Pseudomonas aeruginosa ATCC ® 27853 ™ ([1]; Peptide Conc 50 μg/ml) | Effects of Peptide Compounds on Pseudomonas aeruginosa ATCC ® 27853 ™ ([1]; Peptide Conc 100 μg/ml) | Effects of Peptide Compounds on Pseudomonas aeruginosa ATCC ® 27853 ™ ([1]; Peptide Conc 200 μg/ml) | Effects of Peptide Compounds on Escherichia coli ATCC ® 25922 ™ [2] | activity against Acinetobacter baumannii [3] | activity against Salmonella typhimurium (Salmonella typhimurium) | binding of Pseudomonas LPS (LAL) (Pseudomonas LPS) | release of TNF-α in response to Pseudomonas LPS (RAW264.7 cells) | effect of added peptide on sensitivity of the bacterium to Cefotaxime ([4]; 3.04 μg/ml peptide with Cefotaxime 2.81 μg/ml, P=0.0143) | effect of added peptide with Levofloxacin, Fractional area (FA) ([4]; 3.04 μg/ml peptide with Levofloxacin 3.6 μg/ml) | effect of added peptide on killing by Ciprofloxacin ([4]; 4.05 μg/ml peptide with […] Ciprofloxacin, P=0.0003) | effect of added peptide on the killing effect of Cefotaxime ([4]; 0.34 and 1.0 μg/ml peptide with Cefotaxime 2.81 μg/ml) |
| --- | --- | --- | --- | --- | --- | --- | --- | --- | --- | --- | --- | --- | --- |
| CC[C@H](C)[C@H](NC(=O)[C@H](CC(C)C)NC(=O)[C@H](C)NC(=O)CNC(=O)CNC(=O)[C@H](CS)NC(=O)[C@H](Cc1ccccc1)NC(=O)[C@H](Cc1c[nH]cn1)NC(=O)[C@H](CCCNC(=N)N)NC(=O)CNC(=O)[C@H](CCC(N)=O)NC(=O)[C@H](CC(N)=O)NC(=O)[C@H](CCCNC(=N)N)NC(=O)[C@H](CCCNC(=N)N)NC(=O)[C@H](CCCNC(=N)N)NC(=O)[C@H](CCCNC(=N)N)NC(=O)COCCOCCNC(=O)COCCOCCN)C(=O)N[C@@H](Cc1c[nH]cn1)C(=O)N[C@@H](C)C(=O)N[C@@H](CCCNC(=N)N)C(=O)N[C@@H](Cc1ccccc1)C(=O)N[C@H](C(=O)N[C@@H](CCSC)C(=O)N[C@H](C(=O)N[C@@H](C)C(=O)N[C@@H](C)C(=O)N[C@@H](CO)C(=O)N[C@@H](CO)C(=O)N[C@@H](Cc1ccccc1)C(=O)N[C@@H](CCC(N)=O)C(=O)N[C@@H](CCCNC(=N)N)C(=O)O)[C@@H](C)O)C(C)C [BCC03-5RMP] (H-[AEEA][AEEA]RRRRNQGRHFCGGALIHARFVMTAASSFQR-OH; N-terminus assumed) | 100.0 | 100.0 | 100.0 | 100.0 | 23.0 | most active | strong, but lesser activity | bound Pseudomonas LPS | attenuate the release of TNF-α |  |  |  |  |
| CC[C@H](C)[C@H](NC(=O)[C@H](CC(C)C)NC(=O)[C@H](C)NC(=O)CNC(=O)CNC(=O)[C@H](CS)NC(=O)[C@H](Cc1ccccc1)NC(=O)[C@H](Cc1c[nH]cn1)NC(=O)[C@H](CCCNC(=N)N)NC(=O)CNC(=O)[C@H](CCC(N)=O)NC(=O)[C@H](CC(N)=O)NC(=O)[C@H](CCCNC(=N)N)NC(=O)[C@H](CCCNC(=N)N)NC(=O)[C@H](CCCNC(=N)N)NC(=O)[C@H](CCCNC(=N)N)NC(=O)COCCOCCNC(=O)COCCOCCN)C(=O)N[C@@H](Cc1c[nH]cn1)C(=O)N[C@@H](C)C(=O)N[C@@H](CCCNC(=N)N)C(=O)N[C@@H](Cc1ccccc1)C(=O)N[C@H](C(=O)N[C@@H](CCSC)C(=O)N[C@H](C(=O)N[C@@H](C)C(=O)N[C@@H](C)C(=O)N[C@@H](CO)C(=O)N[C@@H](CS)C(=O)N[C@@H](Cc1ccccc1)C(=O)N[C@@H](CCC(N)=O)C(=O)N[C@@H](CCCNC(=N)N)C(=O)O)[C@@H](C)O)C(C)C [BCC01-5RMP] (H-[AEEA][AEEA]RRRRNQGRHFCGGALIHARFVMTAASCFQR-OH; N-terminus and C-terminus assumed) |  |  |  |  |  | most active | strong, but lesser activity | bound Pseudomonas LPS | attenuate the release of TNF-α |  |  |  |  |
| CC[C@H](C)[C@H](NC(=O)[C@H](CC(C)C)NC(=O)[C@H](C)NC(=O)CNC(=O)CNC(=O)[C@H](CO)NC(=O)[C@H](Cc1ccccc1)NC(=O)[C@H](Cc1c[nH]cn1)NC(=O)[C@H](CCCNC(=N)N)NC(=O)CNC(=O)[C@H](CCC(N)=O)NC(=O)[C@H](CC(N)=O)NC(=O)[C@H](CCCNC(=N)N)NC(=O)[C@H](CCCNC(=N)N)NC(=O)[C@H](CCCNC(=N)N)NC(=O)[C@H](CCCNC(=N)N)NC(=O)COCCOCCNC(=O)COCCOCCN)C(=O)N[C@@H](Cc1c[nH]cn1)C(=O)N[C@@H](C)C(=O)N[C@@H](CCCNC(=N)N)C(=O)N[C@@H](Cc1ccccc1)C(=O)N[C@H](C(=O)N[C@@H](CCSC)C(=O)N[C@H](C(=O)N[C@@H](C)C(=O)N[C@@H](C)C(=O)N[C@@H](CO)C(=O)N[C@@H](CS)C(=O)N[C@@H](Cc1ccccc1)C(=O)N[C@@H](CCC(N)=O)C(=O)N[C@@H](CCCNC(=N)N)C(=O)O)[C@@H](C)O)C(C)C [BCC02-5RMP] (H-[AEEA][AEEA]RRRRNQGRHFSGGALIHARFVMTAASCFQR-OH; N-terminus and C-terminus assumed) |  |  |  |  |  | most active | strong, but lesser activity | bound Pseudomonas LPS | attenuate the release of TNF-α | now sensitive | shows significance | significantly affected killing | no statistical effect |
